Values after ≈ are worked out from the molar mass of the structure shown. Values joined by “and” are separate entries in the source; they are usually repeats but may differ in a detail not shown here. Identical values can stand only once.
Experiments:
Bacillus cereus = assay: Antibacterial activity against Bacillus cereus assessed as inhibition of bacterial growth; format: functional
[1] = system: Trypanosoma brucei rhodesiense; assay: […] activity against drug sensitive Trypanosoma brucei rhodesiense assessed as inhibition of parasite growth; format: functional, organism-based
KB = assay: Antiproliferative activity against human KB cells assessed as cell growth inhibition; format: functional, cell-based
Streptococcus pyogenes = assay: Antibacterial activity against Streptococcus pyogenes assessed as inhibition of bacterial growth; format: functional
Haemophilus influenzae = assay: Antibacterial activity against Haemophilus influenzae assessed as inhibition of bacterial growth; format: functional
[2] = system: Trypanosoma brucei brucei; assay: Antitrypanosomal activity against bloodstream Trypanosoma brucei brucei assessed as parasite growth inhibition measured after 72 hrs by alamar blue assay; format: functional, organism-based
Rhizoctonia solani = assay: Antifungal activity against Rhizoctonia solani assessed as inhibition of microbial growth; format: functional
[3] = system: Acinetobacter calcoaceticus; assay: Antibacterial activity against Acinetobacter calcoaceticus assessed as inhibition of bacterial growth; format: functional
[4] = Antioxidant activity assessed as DPPH radical scavenging activity; format: functional
Homo sapiens [5] = species on record: Homo sapiens; assay: Inhibition of LTB3 (unknown origin) at 0.00001 M relative to control; details: dose 10 µM
Trypanosoma cruzi = assay: […] activity against drug sensitive Trypanosoma cruzi assessed as inhibition of parasite growth; format: functional, organism-based
[6] = Inhibition of plasmodium falciparum fabZ
[7] = biological target: T1, Polyunsaturated fatty acid 5-lipoxygenase (Homo sapiens) (UniProt P09917); assay: Inhibition of ALOX5 (unknown origin) at 0.000001 M relative to control; details: dose 1 µM
T1 sequence (whole entry): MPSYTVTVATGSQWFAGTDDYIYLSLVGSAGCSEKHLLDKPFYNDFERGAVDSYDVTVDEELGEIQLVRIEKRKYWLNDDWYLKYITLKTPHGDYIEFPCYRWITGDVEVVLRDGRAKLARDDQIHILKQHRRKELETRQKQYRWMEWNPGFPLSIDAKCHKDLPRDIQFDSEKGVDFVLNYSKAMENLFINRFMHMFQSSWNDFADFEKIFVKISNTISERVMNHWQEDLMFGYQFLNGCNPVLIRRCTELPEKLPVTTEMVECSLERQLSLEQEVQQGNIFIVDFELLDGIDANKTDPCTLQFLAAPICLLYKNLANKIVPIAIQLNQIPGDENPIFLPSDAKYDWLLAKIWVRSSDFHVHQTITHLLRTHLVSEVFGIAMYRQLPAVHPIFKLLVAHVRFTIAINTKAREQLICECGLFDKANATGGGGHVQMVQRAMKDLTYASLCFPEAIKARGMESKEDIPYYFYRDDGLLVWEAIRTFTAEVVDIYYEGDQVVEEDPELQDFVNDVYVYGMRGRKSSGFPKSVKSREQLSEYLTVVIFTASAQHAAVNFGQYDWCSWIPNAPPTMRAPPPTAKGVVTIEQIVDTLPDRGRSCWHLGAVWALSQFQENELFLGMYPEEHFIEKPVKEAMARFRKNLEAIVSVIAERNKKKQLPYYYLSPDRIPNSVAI

[8] = biological target: T1, Polyunsaturated fatty acid 5-lipoxygenase (Homo sapiens); assay: Inhibition of ALOX5 (unknown origin) at 0.0000001 M relative to control; details: dose 100 nM
Neisseria meningitidis = assay: Antibacterial activity against Neisseria meningitidis assessed as inhibition of bacterial growth; format: functional
[9] = biological target: T1, Polyunsaturated fatty acid 5-lipoxygenase (Homo sapiens); assay: Inhibition of ALOX5 (unknown origin) assessed as reduction in 5-HETE formation
Priestia megaterium = assay: Antibacterial activity against Bacillus megaterium assessed as inhibition of bacterial growth; format: functional
Cyclooxygenase = Cyclooxygenase (Homo sapiens, UniProt P35354+P23219); assay: Inhibition of COX (unknown origin); format: protein assay
Homo sapiens [10] = species on record: Homo sapiens; assay: Inhibition of LTB3 (unknown origin) at 0.00000001 M relative to control; details: dose 10 nM
MCF7 = assay: Antiproliferative activity against human MCF7 cells assessed as cell growth inhibition; format: functional, cell-based
Candida albicans = assay: Antifungal activity against Candida albicans assessed as inhibition of fungal growth by MTT assay; format: functional
[11] = biological target: Calmodulin-1 (Homo sapiens) (UniProt P0DP23); assay: Inhibition of calmodulin (unknown origin)
Rattus norvegicus = species on record: Rattus norvegicus; assay: Inhibition of iron-induced lipid peroxidation in rat brain homogenate; format: functional
Breast carcinoma cell = assay: Antiproliferative activity against human Breast cancer cell line assessed as cell growth inhibition; format: functional, cell-based
DNA polymerase beta = DNA polymerase beta (Homo sapiens, UniProt P06746); assay: Inhibition of DNA polymerase beta (unknown origin)
[12] = biological target: T1, Polyunsaturated fatty acid 5-lipoxygenase (Homo sapiens); assay: Inhibition of ALOX5 (unknown origin) at 0.00000001 M relative to control; details: dose 10 nM
[13] = system: Trichophyton mentagrophytes; assay: Antifungal activity against Trichophyton mentagrophytes assessed as inhibition of microbial growth; format: functional
Streptococcus viridans = assay: Antibacterial activity against Streptococcus viridans assessed as inhibition of bacterial growth; format: functional
[14] = system: Human immunodeficiency virus 1; assay: Antiviral activity against HIV-1; format: functional, organism-based
[15] = biological target: T1, Polyunsaturated fatty acid 5-lipoxygenase (Homo sapiens); assay: Inhibition of ALOX5 (unknown origin) at 0.00001 M relative to control; details: dose 10 µM
Homo sapiens [16] = species on record: Homo sapiens; assay: Inhibition of LTB3 (unknown origin) at 0.0000001 M relative to control; details: dose 100 nM
Plasmodium falciparum [17] = assay: Antimalarial activity against drug sensitive Plasmodium falciparum KI assessed as inhibition of parasite growth; format: functional, organism-based
Aspergillus niger = assay: Antifungal activity against Aspergillus niger assessed as inhibition of microbial growth; format: functional
Plasmodium falciparum [18] = assay: Antimalarial activity against drug sensitive Plasmodium falciparum NF54 assessed as inhibition of parasite growth; format: functional, organism-based
Bacillus subtilis = assay: Antibacterial activity against Bacillus subtilis assessed as inhibition of bacterial growth; format: functional
Pyricularia oryzae = assay: Antifungal activity against Pyricularia oryzae assessed as inhibition of microbial growth; format: functional, organism-based
Pasteurella multocida = assay: Antibacterial activity against Pasteurella multocida assessed as inhibition of bacterial growth; format: functional
Staphylococcus aureus = assay: Antibacterial activity against Staphylococcus aureus assessed as inhibition of bacterial growth; format: functional
Homo sapiens [19] = species on record: Homo sapiens; assay: Inhibition of LTB3 (unknown origin) at 0.000001 M relative to control; details: dose 1 µM
[20] = biological target: T1, Polyunsaturated fatty acid 5-lipoxygenase (Homo sapiens); assay: Inhibition of ALOX5 (unknown origin) assessed as reduction in calmodulin level
Cryptococcus neoformans = assay: […] activity against Cryptococcus neoformans assessed as inhibition of […]; format: functional
Leishmania donovani = assay: […] activity against drug sensitive Leishmania donovani assessed as inhibition of parasite growth; format: functional, organism-based
Leishmania amazonensis = assay: Antileishmanial activity against Leishmania amazonensis axenic amastigotes assessed as inhibition of parasite growth; format: functional, organism-based
U-937 = assay: Antiproliferative activity against human U-937 cells assessed as cell growth inhibition; format: functional
P388 = assay: Antiproliferative activity against mouse P388 cells assessed as cell growth inhibition; format: functional, cell-based
K562 = assay: Antiproliferative activity against human K562 cells assessed as cell growth inhibition; format: functional
HCT-116 = assay: Antiproliferative activity against human HCT-116 cells assessed as cell growth inhibition; format: functional
[21] = Cytotoxicity against mouse 3T3 cells assessed as reduction in cell viability; format: toxicity, cell-based; details: NIH3T3 cells
DU-145 = assay: Antiproliferative activity against human DU-145 cells assessed as cell growth inhibition; format: functional
M14 = assay: Antiproliferative activity against human M14 cells assessed as cell growth inhibition; format: functional
A549 = assay: Antiproliferative activity against human A549 cells assessed as cell growth inhibition; format: functional
NCI-H460 = assay: Antiproliferative activity against human NCI-H460 cells assessed as cell growth inhibition; format: functional
Caenorhabditis elegans = assay: Nematocidal activity against Caenorhabditis elegans; format: functional, organism-based
[22] = system: Trypanosoma brucei brucei; assay: […] activity against Trypanosoma brucei brucei GUTat 3.1 assessed as inhibition of parasite growth measured after 72 hrs by alamar blue assay; format: functional, organism-based; details: GUTat 3.1, time 72 hrs
HT-29 = assay: Antiproliferative activity against human HT-29 cells assessed as cell growth inhibition; format: functional, cell-based

**Q.** Which MIC (Bacillus cereus) does the source give for `Oc1cc2cc(c1O)Oc1ccc(cc1)CCc1cccc(O)c1Oc1cccc(c1)CC2` [MARCHANTIN A] here?
**A.** 12.5 µg/mL (≈ 28.4 µM)

**Q.** And the IC50 [1]?
**A.** 2.09 µM

**Q.** And the IC50 (KB)?
**A.** 3.7 µM

**Q.** And the MIC (Streptococcus pyogenes)?
**A.** 9.1 µM (≈ 4.01 µg/mL)

**Q.** What about the MIC (Haemophilus influenzae) of the same compound?
**A.** 72.7 µM (≈ 32 µg/mL)

**Q.** What about the IC50 [2] of the same compound?
**A.** 0.27 µg/mL (≈ 0.613 µM)

**Q.** What about the MIC (Rhizoctonia solani) of the same compound?
**A.** 50 µg/mL

**Q.** What about the MIC [3] of the same compound?
**A.** 6.25 µg/mL (≈ 14.2 µM)

**Q.** And the IC50 [4]?
**A.** 20 µg/mL (≈ 45.4 µM)

**Q.** What about the inhibition (Homo sapiens [5]) of the same compound?
**A.** 99%

**Q.** And the IC50 (Trypanosoma cruzi)?
**A.** 14.1 µM

**Q.** What about the IC50 [6] of the same compound?
**A.** 18.2 µM

**Q.** What about the inhibition [7] of the same compound?
**A.** 94%

**Q.** What about the inhibition [8] of the same compound?
**A.** 45%

**Q.** What about the MIC (Neisseria meningitidis) of the same compound?
**A.** 72.7 µM (≈ 32 µg/mL)

**Q.** What about the ID50 [9] of the same compound?
**A.** 1.85 µg/mL (≈ 4.2 µM)

**Q.** What about the MIC (Priestia megaterium) of the same compound?
**A.** 25 µg/mL (≈ 56.8 µM)

**Q.** What about the IC50 (Cyclooxygenase) of the same compound?
**A.** 46.4 µM

**Q.** And the inhibition (Homo sapiens [10])?
**A.** 40%

**Q.** What about the IC50 (MCF7) of the same compound?
**A.** 4 µg/mL and 11.5 µM

**Q.** What about the MID (Candida albicans) of the same compound?
**A.** 2.5 µg/mL

**Q.** What about the ID50 [11] of the same compound?
**A.** 1.85 µg/mL (≈ 4.2 µM)

**Q.** And the IC50 (Rattus norvegicus)?
**A.** 0.51 µM

**Q.** What about the IC50 (Breast carcinoma cell) of the same compound?
**A.** 5.5 µM

**Q.** And the IC50 (DNA polymerase beta)?
**A.** 14.4 µM

**Q.** And the inhibition [12]?
**A.** 16%

**Q.** What about the MIC [13] of the same compound?
**A.** 3.13 µg/mL

**Q.** And the MIC (Streptococcus viridans)?
**A.** 18.1 µM (≈ 7.97 µg/mL)

**Q.** What about the IC50 [14] of the same compound?
**A.** 5.3 µg/mL (≈ 12 µM)

**Q.** And the inhibition [15]?
**A.** 89%

**Q.** And the inhibition (Homo sapiens [16])?
**A.** 70%

**Q.** And the IC50 (Plasmodium falciparum [17])?
**A.** 2.02 µM

**Q.** And the MIC (Aspergillus niger)?
**A.** 25 µg/mL

**Q.** And the IC50 (Plasmodium falciparum [18])?
**A.** 3.41 µM

**Q.** And the MIC (Bacillus subtilis)?
**A.** 25 µg/mL (≈ 56.8 µM)

**Q.** And the MIC (Pyricularia oryzae)?
**A.** 12.5 µg/mL

**Q.** And the MIC (Pasteurella multocida)?
**A.** 4.5 µM (≈ 1.98 µg/mL)

**Q.** And the MIC (Staphylococcus aureus)?
**A.** 3.13 µg/mL and 0.0069 µM

**Q.** And the inhibition (Homo sapiens [19])?
**A.** 97%

**Q.** And the ID50 [20]?
**A.** 1.85 µg/mL (≈ 4.2 µM)

**Q.** What about the MIC (Cryptococcus neoformans) of the same compound?
**A.** 12.5 µg/mL (≈ 28.4 µM)

**Q.** And the IC50 (Leishmania donovani)?
**A.** 1.59 µM

**Q.** What does the source list for `CC(=O)OCC1=CO[C@H](OC(C)=O)[C@@H]2[C@H]1[C@@H]1[C@H](CC[C@@]23CO3)C1(C)C`?
**A.** IC50 (KB): 0.28 µg/mL; IC50 (Leishmania amazonensis): 7.1 µM; GI50 (U-937): 2.6 µM; IC50 (P388): 3 µg/mL (≈ 8.56 µM); GI50 (K562): 4.8 µM; GI50 (HCT-116): 4.7 µM; GI50 (MCF7): 6.8 µM; GI50 [21]: 1.7 µM; GI50 (DU-145): 1.4 µM; GI50 (M14): 3.9 µM; GI50 (A549): 9.4 µM; GI50 (NCI-H460): 4.8 µM; IC50 (Caenorhabditis elegans): 111 µg/mL (≈ 317 µM); MIC [22]: 14.5 µM (≈ 5.08 µg/mL); GI50 (HT-29): 1.9 µM

— ChEMBL document CHEMBL5260825, “Chemical Constituents of Bryophytes: Structures and Biological Activity” (J Nat Prod, 2018)
